Data on one molecule can be found in patent US20230364130A1, “INHALED ARGON FOR TREATING A PATIENT SUFFERING FROM CARDIOVASCULAR DISEASE” (L'Air Liquide, Sociëtë Anonyme Pour l'Etude et …, priority 2020, published 2023).

The test system of test [1] is rabbits. Kind of test: additional preliminary study: suprarenal then supraceliac aortic clamping, calculated pulmonary vascular resistance. It counts as in vivo, rabbit. Particulars: argon 70 vol % / oxygen 30 vol %, during suprarenal then supraceliac aortic clamping. The protocol: A first clamping of the aorta of these rabbits was performed above the renal artery, followed by clamping at the supraceliac level. The objective is to see the effect of argon during a gradual modification of systemic resistance.

Test [2] deals with rabbits. Description: model of multiple organ failure by clamping the supraceliac aorta (30 min) then reperfusion; hemodynamics and acid-base parameters. Format: in vivo, rabbit (male, New Zealand breed). As for the experimental part:
(§1) More specifically, the model used is a lagomorphic model of multiple organ failure by clamping the supraceliac aorta.
The rabbits were sedated by intravenous injection (Zoletil® 15 mg/kg), then intubated to be ventilated. Anesthesia is completed by intravenous administration of thiopental (10 mg/kg) and methadone hydrochloride (Comfortan® 0.6 mg/kg); and maintained as needed with thiopental boluses.
(§2) After a period of hemodynamic stabilization, the supraceliac aorta is clamped with an atraumatic clamp for 30 minutes. In order to avoid any thrombus formation at the level of the clamping, a bolus of unfractionated heparin (250 IU/kg) is administered to the rabbit in question, 5 minutes before clamping.
The effectiveness of the clamping is verified by the absence of an aortic pulse downstream of the clamping. Similarly, the absence of thrombus is assessed by the presence of an aortic pulse after unclamping.
(§3) The rabbits are separated into 2 groups: • a Control Group (CG) inhaling an N2/O2 binary gas mixture containing 30% of oxygen and the rest as nitrogen (vol %); • an Argon Group (AG) according to the invention inhaling an Ar/O2 binary gas mixture containing 30% of oxygen and the rest as argon (vol %), i.e. 70 vol % of argon.
The cardiac output is measured by a cardiac output valve before, during and after ischemia (Isch.) of the aorta.

Test [3] relates to rabbits. Kind of test: histology score of organs after supraceliac aortic clamping and reperfusion. Format: in vivo, rabbit (male, New Zealand breed). The protocol: as §1, §2, §3
FIG. 3 represents the histology score of several organs: heart, liver, lungs, kidneys and jejunum (i.e. intestines).

Setting [4] is: after 300 minutes of reperfusion.

Structures are written as SMILES.

On to `[Ar]` [argon], for which, in the test on rabbits [1], the “pulmonary vascular resistance vs animals exposed to oxygen-enriched air” value is given as “immediately reduced”. Moreover, the “pH, HCO3- and lactate parameters vs Control Group” value in the test with rabbits [2] (acid-base biochemical parameters) is recorded as “significantly preserved within normal values”. Also, the results for the “norepinephrine dose required to maintain a stable arterial pressure” value with rabbits [2] (after 15 minutes of reperfusion) and in the test on rabbits [2] (at the end of the 300-minute monitoring) were 1.4 ± 0.6 µg/kg/min and 3.3 ± 1.6 µg/kg/min, respectively. In addition, the cardiac output in the test with rabbits [2] (after 30 minutes of gas inhalation, before clamping) came out at 99 ± 10 mL/min/kg; in the test with rabbits [2] (setting [4]) it was 60 ± 4 mL/min/kg; with rabbits [2] (at the start of the experiment, inhaled Ar/O2 70/30 vol %), 108 ± 7 mL/min/kg. Besides, the pH in the test with rabbits [2] (setting [4]) was found to be 7.16. Further, the “cardiac output vs Control Group” value in the test on rabbits [2] (after unclamping, up to 240 minutes of reperfusion) was “no significant difference between the groups”. The mean arterial pressure with rabbits [2] (during the ischemia phase following clamping) amounted to 130±7 mmHg. Moreover, the “mean arterial pressure vs Control Group” value with rabbits [2] (during the reperfusion phase, after unclamping) is recorded as “no significant difference between the groups”. The “attenuated decrease of cardiac output vs Control Group” value with rabbits [2] (immediately after beginning of surgery, upon clamping) is reported as “approximately 20%”. Also, in the test on rabbits [2] (throughout reperfusion), the “norepinephrine doses to maintain mean arterial pressure vs Control Group” value is “significantly lower”. Moreover, in the test on rabbits [2] (throughout the protocol), the “heart rate vs Control Group” value is recorded as “no significant difference between the groups”. In addition, the “jejunal lesions vs Control Group” value in the test on rabbits [3] (jejunum, histology) was “no difference”. The “tubular necrosis lesions vs Control Group” value in the test on rabbits [3] (kidneys, histology) was “significantly greater in the Control Group than in the Argon Group”. In addition, the “histology score, centrilobular clarification vs Control Group” value in the test with rabbits [3] (liver) is “significantly lower”. Also, in the test with rabbits [3] (lungs, histology), the “congestive and edematous lesions of the lung parenchyma vs Control Group” value is given as “the difference was not significant”. Further, in the test with rabbits [3] (myocardium, histology), the “subendocardial necrosis lesions vs Control Group” value is “no significant difference”.
